Legend:
[1] = target: Human α2δ-1 subunit of Cav2.2 calcium channel (Homo sapiens, UniProt P54289); assay: Human α2δ-1 subunit of Cav2.2 calcium channel assay ([3H]-gabapentin binding); details: binding to the α2δ-1 subunit of voltage-gated calcium channels expressed as Ki; + also covers inhibition between 1% and 50%
Procedure, shortened: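 Displacement of 15 nM [3H]-gabapentin from human α2δ-1-enriched membranes (Hepes-KOH 10 mM, pH 7.4; 27 °C, 60 min) read by filter binding and radioactivity counting. Values are single-point % inhibition (1 or 10 μM) or five-point Ki; 10 μM pregabalin sets NSB.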

Human σ1 receptor = target: T1, Human σ1 receptor (Homo sapiens, UniProt Q99720); assay: Human σ1 receptor radioligand assay ([3H](+)-pentazocine binding, transfected HEK-293 membranes); details: binding to σ1 receptor expressed as Ki; + also covers inhibition between 1% and 50%; read-out: σ-1 binding
T1 construct: expressed in transfected cells; host or cells: HEK-293
Procedure, shortened: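 Ki was derived from five test concentrations, or % inhibition was measured at a single 1 or 10 μM dose, against 5 nM [3H](+)-pentazocine. Incubation was 120 min at 37° C in 50 mM Tris-HCl pH 8 with 7 μg HEK-293 membranes, and 10 μM haloperidol set non-specific binding. Bound radioactivity was counted after filtration.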

T1 sequence (Q99720 whole entry): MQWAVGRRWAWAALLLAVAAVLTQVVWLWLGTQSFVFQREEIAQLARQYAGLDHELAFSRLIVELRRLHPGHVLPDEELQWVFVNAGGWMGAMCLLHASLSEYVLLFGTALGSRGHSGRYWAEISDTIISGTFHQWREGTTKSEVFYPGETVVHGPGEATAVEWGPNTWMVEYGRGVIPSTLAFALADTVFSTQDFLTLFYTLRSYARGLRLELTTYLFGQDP
Human α2δ-1 subunit of Cav2.2 calcium channel, sequence (P54289 25-1103): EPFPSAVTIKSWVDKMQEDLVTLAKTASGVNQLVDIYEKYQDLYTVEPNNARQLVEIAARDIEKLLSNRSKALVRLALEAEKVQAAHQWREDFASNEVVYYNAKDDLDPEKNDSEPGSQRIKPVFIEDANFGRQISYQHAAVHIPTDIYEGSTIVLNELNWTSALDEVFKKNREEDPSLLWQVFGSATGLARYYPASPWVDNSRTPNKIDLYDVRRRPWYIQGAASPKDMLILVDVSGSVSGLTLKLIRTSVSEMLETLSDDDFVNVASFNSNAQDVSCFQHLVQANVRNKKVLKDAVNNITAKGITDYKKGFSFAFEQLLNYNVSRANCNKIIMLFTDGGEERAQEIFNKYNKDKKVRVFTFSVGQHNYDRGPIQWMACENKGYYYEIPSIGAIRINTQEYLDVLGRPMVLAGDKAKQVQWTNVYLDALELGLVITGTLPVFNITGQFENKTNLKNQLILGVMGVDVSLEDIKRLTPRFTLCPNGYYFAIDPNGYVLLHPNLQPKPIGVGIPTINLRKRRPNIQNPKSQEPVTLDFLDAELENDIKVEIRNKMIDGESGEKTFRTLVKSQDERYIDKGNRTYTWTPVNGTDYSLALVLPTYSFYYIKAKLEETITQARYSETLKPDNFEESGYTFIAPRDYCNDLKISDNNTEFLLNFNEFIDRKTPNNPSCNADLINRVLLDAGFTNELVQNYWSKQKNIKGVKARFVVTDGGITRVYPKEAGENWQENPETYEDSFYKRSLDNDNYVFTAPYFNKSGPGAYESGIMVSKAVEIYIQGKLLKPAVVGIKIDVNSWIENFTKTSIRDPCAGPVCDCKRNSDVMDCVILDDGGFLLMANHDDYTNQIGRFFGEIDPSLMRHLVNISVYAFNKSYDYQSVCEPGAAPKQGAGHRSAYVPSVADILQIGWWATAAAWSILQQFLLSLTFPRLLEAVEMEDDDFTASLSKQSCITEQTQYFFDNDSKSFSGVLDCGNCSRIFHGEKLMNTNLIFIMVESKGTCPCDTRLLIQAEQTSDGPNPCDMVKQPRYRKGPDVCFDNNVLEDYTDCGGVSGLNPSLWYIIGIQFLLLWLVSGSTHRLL

Ki [1] | Ki (Human σ1 receptor) | SMILES
> 5000 nM | > 1000 nM | Cc1nn2c(C3CCCN(Cc4ccc(Cl)cc4)C3)ccnc2c1-c1cnc(N)nc1 (centres unmarked) [Example 131, 5-(7-(1-(4-Chlorobenzyl)piperidin-3-yl)-2-methylpyrazolo[1,5-a]pyrimidin-3-yl)pyrimidin-2-amine]
> 5000 nM | > 1000 nM | Cc1nn2c(C3CCCN(Cc4ccc(Cl)cc4)C3)ccnc2c1-c1ccc(CO)nc1 (centres unmarked) [Example 135, (5-(7-(1-(4-Chlorobenzyl)piperidin-3-yl)-2-methylpyrazolo[1,5-a]pyrimidin-3-yl)pyridin-2-yl)methanol]
> 5000 nM | > 1000 nM | CCOc1cc(-c2c(C)nn3c(C4CCCN(Cc5ccc(Cl)cc5)C4)ccnc23)ccn1 (centres unmarked) [Example 136, 7-(1-(4-Chlorobenzyl)piperidin-3-yl)-3-(2-ethoxypyridin-4-yl)-2-methylpyrazolo[1,5-a]pyrimidine]
> 5000 nM | > 1000 nM | Cc1nn2c(C3CCCN(Cc4ccc(Cl)cc4)C3)ccnc2c1-c1ccnc(OCC2CC2)c1 (centres unmarked) [Example 137, 7-(1-(4-Chlorobenzyl)piperidin-3-yl)-3-(2-(cyclopropylmethoxy)pyridin-4-yl)-2-methylpyrazolo[1,5-a]pyrimidine]
500 to 5000 nM | > 1000 nM | Cc1nn2c(C3CCCN(Cc4ccc(Cl)cc4)C3)ccnc2c1-c1ccnc(N)n1 (centres unmarked) [Example 140, 4-(7-(1-(4-Chlorobenzyl)piperidin-3-yl)-2-methylpyrazolo[1,5-a]pyrimidin-3-yl)pyrimidin-2-amine]
> 5000 nM | < 500 nM | Cc1nn2c(C3CCCN(Cc4ccc(Cl)cc4)C3)ccnc2c1N(C)C (centres unmarked) [Example 141, 7-(1-(4-Chlorobenzyl)piperidin-3-yl)-N,N,2-trimethylpyrazolo[1,5-a]pyrimidin-3-amine]
500 to 5000 nM | < 500 nM | Cc1nn2c(C3CCCN(Cc4ccc(Cl)cc4)C3)ccnc2c1CNCc1ccccc1 (centres unmarked) [Example 144, N-Benzyl-1-(7-(1-(4-chlorobenzyl)piperidin-3-yl)-2-methylpyrazolo[1,5-a]pyrimidin-3-yl)methanamine]
500 to 5000 nM | < 500 nM | Cc1nn2c(C3CCCN(Cc4ccc(Cl)cc4)C3)ccnc2c1CN(C)Cc1ccccc1 (centres unmarked) [Example 145, N-Benzyl-1-(7-(1-(4-chlorobenzyl)piperidin-3-yl)-2-methylpyrazolo[1,5-a]pyrimidin-3-yl)-N-methylmethanamine]
500 to 5000 nM | < 500 nM | Cc1nn2c(C3CCCN(Cc4ccc(Cl)cc4)C3)ccnc2c1CNCc1ccc(F)cc1 (centres unmarked) [Example 146, 1-(7-(1-(4-Chlorobenzyl)piperidin-3-yl)-2-methylpyrazolo[1,5-a]pyrimidin-3-yl)-N-(4-fluorobenzyl)methanamine]
> 5000 nM | < 500 nM | Cc1nn2c(C3CCCN(Cc4ccc(Cl)cc4)C3)ccnc2c1CNCc1ccc(CO)cc1 (centres unmarked) [Example 147, (4-((((7-(1-(4-Chlorobenzyl)piperidin-3-yl)-2-methylpyrazolo[1,5-a]pyrimidin-3-yl)methyl)amino)methyl)phenyl)methanol]
500 to 5000 nM | < 500 nM | Cc1nn2c(C3CCCN(Cc4ccc(Cl)cc4)C3)ccnc2c1CNCc1ccncc1 (centres unmarked) [Example 148, 1-(7-(1-(4-Chlorobenzyl)piperidin-3-yl)-2-methylpyrazolo[1,5-a]pyrimidin-3-yl)-N-(pyridin-4-ylmethyl)methanamine]
500 to 5000 nM | < 500 nM | Cc1nn2c(C3CCCN(Cc4ccc(Cl)cc4)C3)ccnc2c1CNCc1cccs1 (centres unmarked) [Example 149, 1-(7-(1-(4-Chlorobenzyl)piperidin-3-yl)-2-methylpyrazolo[1,5-a]pyrimidin-3-yl)-N-(thiophen-2-ylmethyl)methanamine]
500 to 5000 nM | < 500 nM | CCNCc1c(C)nn2c(C3CCCN(Cc4ccc(Cl)cc4)C3)ccnc12 (centres unmarked) [Example 155, N-((7-(1-(4-Chlorobenzyl)piperidin-3-yl)-2-methylpyrazolo[1,5-a]pyrimidin-3-yl)methyl)ethanamine]
500 to 5000 nM | < 500 nM | Cc1nn2c(C3CCCN(Cc4ccc(Cl)cc4)C3)ccnc2c1CNCC1CC1 (centres unmarked) [Example 157, 1-(7-(1-(4-Chlorobenzyl)piperidin-3-yl)-2-methylpyrazolo[1,5-a]pyrimidin-3-yl)-N-(cyclopropylmethyl)methanamine]
500 to 5000 nM | < 500 nM | Cc1nn2c(C3CCCN(Cc4ccc(Cl)cc4)C3)ccnc2c1CNCCO (centres unmarked) [Example 158, 2-(((7-(1-(4-Chlorobenzyl)piperidin-3-yl)-2-methylpyrazolo[1,5-a]pyrimidin-3-yl)methyl)amino)ethan-1-ol]

More lines, now with the values behind:

SMILES | Ki [1] | Ki (Human σ1 receptor)
Cc1nn2c(C3CCCN(Cc4ccc(Cl)cc4)C3)ccnc2c1-c1cncnc1 (centres unmarked) [Example 130, 7-(1-(4-Chlorobenzyl)piperidin-3-yl)-2-methyl-3-(pyrimidin-5-yl)pyrazolo[1,5-a]pyrimidine] | 500 to 5000 nM | > 1000 nM
Cc1nn2c(C3CCCN(Cc4ccc(Cl)cc4)C3)ccnc2c1-c1cnn(C)c1 (centres unmarked) [Example 132, 7-(1-(4-Chlorobenzyl)piperidin-3-yl)-2-methyl-3-(1-methyl-1H-pyrazol-4-yl)pyrazolo[1,5-a]pyrimidine] | 500 to 5000 nM | > 1000 nM
Cc1noc(C)c1-c1c(C)nn2c(C3CCCN(Cc4ccc(Cl)cc4)C3)ccnc12 (centres unmarked) [Example 133, 4-(7-(1-(4-Chlorobenzyl)piperidin-3-yl)-2-methylpyrazolo[1,5-a]pyrimidin-3-yl)-3,5-dimethylisoxazole] | > 5000 nM | > 1000 nM
Cc1nn2c(C3CCCN(Cc4ccc(Cl)cc4)C3)ccnc2c1-c1ccnc(CO)c1 (centres unmarked) [Example 134, (4-(7-(1-(4-Chlorobenzyl)piperidin-3-yl)-2-methylpyrazolo[1,5-a]pyrimidin-3-yl)pyridin-2-yl)methanol] | > 5000 nM | 500 to 1000 nM
Cc1nn2c(C3CCCN(Cc4ccc(Cl)cc4)C3)ccnc2c1-c1cncn1C (centres unmarked) [Example 138, 7-(1-(4-Chlorobenzyl)piperidin-3-yl)-2-methyl-3-(1-methyl-1H-imidazol-5-yl)pyrazolo[1,5-a]pyrimidine] | > 5000 nM | > 1000 nM
Cc1nn2c(C3CCCN(Cc4ccc(Cl)cc4)C3)ccnc2c1-c1ccncn1 (centres unmarked) [Example 139, 7-(1-(4-Chlorobenzyl)piperidin-3-yl)-2-methyl-3-(pyrimidin-4-yl)pyrazolo[1,5-a]pyrimidine] | > 5000 nM | > 1000 nM
Cc1nn2c(C3CCCN(Cc4ccccc4)C3)ccnc2c1N(C)C (centres unmarked) [Example 142, 7-(1-Benzylpiperidin-3-yl)-N,N,2-trimethylpyrazolo[1,5-a]pyrimidin-3-amine] | > 5000 nM | > 1000 nM
Cc1nn2c(C3CCCN(Cc4ccccc4)C3)ccnc2c1N(C)Cc1ccccc1 (centres unmarked) [Example 143, N-Benzyl-7-(1-benzylpiperidin-3-yl)-N,2-dimethylpyrazolo[1,5-a]pyrimidin-3-amine] | > 5000 nM | 500 to 1000 nM
Cc1ccc(CNCc2c(C)nn3c(C4CCCN(Cc5ccc(Cl)cc5)C4)ccnc23)s1 (centres unmarked) [Example 150, 1-(7-(1-(4-Chlorobenzyl)piperidin-3-yl)-2-methylpyrazolo[1,5-a]pyrimidin-3-yl)-N-((5-methylthiophen-2-yl)methyl)methanamine] | 500 to 5000 nM | < 500 nM
Cc1nn2c(C3CCCN(Cc4ccc(Cl)cc4)C3)ccnc2c1CNCc1ccn(C)n1 (centres unmarked) [Example 151, 1-(7-(1-(4-Chlorobenzyl)piperidin-3-yl)-2-methylpyrazolo[1,5-a]pyrimidin-3-yl)-N-((1-methyl-1H-pyrazol-3-yl)methyl)methanamine] | 500 to 5000 nM | < 500 nM
Cc1nnc(CNCc2c(C)nn3c(C4CCCN(Cc5ccc(Cl)cc5)C4)ccnc23)o1 (centres unmarked) [Example 152, 1-(7-(1-(4-Chlorobenzyl)piperidin-3-yl)-2-methylpyrazolo[1,5-a]pyrimidin-3-yl)-N-((5-methyl-1,3,4-oxadiazol-2-yl)methyl)methanamine] | > 5000 nM | 500 to 1000 nM
Cc1nn2c(C3CCCN(Cc4ccc(Cl)cc4)C3)ccnc2c1CNCCc1ccccc1 (centres unmarked) [Example 153, N-((7-(1-(4-Chlorobenzyl)piperidin-3-yl)-2-methylpyrazolo[1,5-a]pyrimidin-3-yl)methyl)-2-phenylethan-1-amine] | 500 to 5000 nM | < 500 nM
COc1ccc(CCNCc2c(C)nn3c(C4CCCN(Cc5ccc(Cl)cc5)C4)ccnc23)cc1 (centres unmarked) [Example 154, N-((7-(1-(4-Chlorobenzyl)piperidin-3-yl)-2-methylpyrazolo[1,5-a]pyrimidin-3-yl)methyl)-2-(4-methoxyphenyl)ethan-1-amine] | 500 to 5000 nM | 500 to 1000 nM
Cc1nn2c(C3CCCN(Cc4ccc(Cl)cc4)C3)ccnc2c1CNCC(F)(F)F (centres unmarked) [Example 156, N-((7-(1-(4-Chlorobenzyl)piperidin-3-yl)-2-methylpyrazolo[1,5-a]pyrimidin-3-yl)methyl)-2,2,2-trifluoroethan-1-amine] | > 5000 nM | 500 to 1000 nM
Cc1nn2c(C3CCCN(Cc4ccc(Cl)cc4)C3)ccnc2c1CNC(C)C (centres unmarked) [Example 159, N-((7-(1-(4-Chlorobenzyl)piperidin-3-yl)-2-methylpyrazolo[1,5-a]pyrimidin-3-yl)methyl)propan-2-amine] | 500 to 5000 nM | < 500 nM
Cc1nn2c(C3CCCN(Cc4ccc(Cl)cc4)C3)ccnc2c1CNCC(C)C (centres unmarked) [Example 160, N-((7-(1-(4-Chlorobenzyl)piperidin-3-yl)-2-methylpyrazolo[1,5-a]pyrimidin-3-yl)methyl)-2-methylpropan-1-amine] | 500 to 5000 nM | < 500 nM

From US12617797B2, “Substituted pyrazolo [1,5-a]pyrimidines having multimodal activity against pain” (ESTEVE PHARMACEUTICALS, S.A., priority 2020, dated 2026)
